Test results from publication PMC9380671, “Development of spiro-3-indolin-2-one containing compounds of antiproliferative and anti-SARS-CoV-2 properties” (Scientific Reports, 2022).

Experiments:
EGFR = biological target: T1, EGFR (Homo sapiens, UniProt P00533); type: cell-based; conditions: western blot, MCF7, compound at its MTT IC50; for EGFR RQ (relative quantification): control RQ 3.4461
T1 construct: Western blot technique was considered for EGFR and VEGFR-2 properties determination; endogenous in cells; host or cells: MCF7 (breast cancer cell line)
Method in brief: (§1)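 Western blot of MCF7 breast cancer cells, each agent tested at its own IC50 from the MTT assay on that line, following the manufacturer's instructions.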

VEGFR-2 = biological target: T2, VEGFR-2 (Homo sapiens, UniProt P35968); type: cell-based; conditions: western blot, MCF7, compound at its MTT IC50; for VEGFR-2 RQ (relative quantification): control RQ 3.2634
T2 construct: Western blot technique was considered for EGFR and VEGFR-2 properties determination; endogenous in cells; host or cells: MCF7 (breast cancer cell line)
Method in brief: as §1

[1] = test system: MCF7 (breast cancer cell line); experiment: Annexin V-FITC apoptosis/necrosis studies; type: cell-based, human; conditions: MCF7, compound at its MTT IC50
Description: It is also notable that both the tested compounds increase the apoptosis of the tested cancer cells. Moreover, the total amount of apoptosis for the tested cell line is higher for compound 6m than that for 6l (total number of apoptosis = 38.41, 42.55 for compounds 6l and 6m, respectively). […] On the other hand, necrosis observed for compound 6m is relatively higher than that of compound 6l (necrosis = 3.01, 3.96 for compounds 6l and 6m, respectively). […] These observations agree with the antiproliferation properties observed through MTT assay (Table 3, Fig. 8).
Cell cycle studies for the most promising agents synthesized (6l and 6m) against MCF7 (breast) cancer call were conducted by the standard technique. The Cells were suspended in DMEM medium in addition to 1% antibiotic–antimycotic mixture (10000 μg ml^-1 potassium penicillin, 10000 μg ml^-1 streptomycin sulfate and 25 μg ml^-1 amphotericin B), 10% fetal bovine serum and 1% L-glutamine at 37 °C, under 5% CO2 and 95% humidity. Cells were seeded at concentration of 30000 cells per well in fresh complete growth medium in 96-well tissue culture microtiter plates for 24 h. Media was aspirated, fresh complete medium was added and cells were incubated with the IC50 concentration of the tested compounds which determined previously in the MTT antiproliferation testing assay. The ab139418-Propidium Iodide Flow Cytometry kit for cycle analysis (reader: BD FACS Calibur)^8 was used for cell cycle analysis. The Annexin V-FITC Apoptosis Detection Kit (Catalog#K101-25) was utilized for apoptosis studies.^9 All the studies were conducted according to the manufacturer’s instruction.

[2] = test system: RPE1 (normal human immortalized retinal pigment epithelial cell line); experiment: MTT toxicity towards normal cells, RPE1; type: cell-based; conditions: RPE-1, read-out: IC50 (µM) ± SEM RPE1

T1 sequence (P00533 25-1210): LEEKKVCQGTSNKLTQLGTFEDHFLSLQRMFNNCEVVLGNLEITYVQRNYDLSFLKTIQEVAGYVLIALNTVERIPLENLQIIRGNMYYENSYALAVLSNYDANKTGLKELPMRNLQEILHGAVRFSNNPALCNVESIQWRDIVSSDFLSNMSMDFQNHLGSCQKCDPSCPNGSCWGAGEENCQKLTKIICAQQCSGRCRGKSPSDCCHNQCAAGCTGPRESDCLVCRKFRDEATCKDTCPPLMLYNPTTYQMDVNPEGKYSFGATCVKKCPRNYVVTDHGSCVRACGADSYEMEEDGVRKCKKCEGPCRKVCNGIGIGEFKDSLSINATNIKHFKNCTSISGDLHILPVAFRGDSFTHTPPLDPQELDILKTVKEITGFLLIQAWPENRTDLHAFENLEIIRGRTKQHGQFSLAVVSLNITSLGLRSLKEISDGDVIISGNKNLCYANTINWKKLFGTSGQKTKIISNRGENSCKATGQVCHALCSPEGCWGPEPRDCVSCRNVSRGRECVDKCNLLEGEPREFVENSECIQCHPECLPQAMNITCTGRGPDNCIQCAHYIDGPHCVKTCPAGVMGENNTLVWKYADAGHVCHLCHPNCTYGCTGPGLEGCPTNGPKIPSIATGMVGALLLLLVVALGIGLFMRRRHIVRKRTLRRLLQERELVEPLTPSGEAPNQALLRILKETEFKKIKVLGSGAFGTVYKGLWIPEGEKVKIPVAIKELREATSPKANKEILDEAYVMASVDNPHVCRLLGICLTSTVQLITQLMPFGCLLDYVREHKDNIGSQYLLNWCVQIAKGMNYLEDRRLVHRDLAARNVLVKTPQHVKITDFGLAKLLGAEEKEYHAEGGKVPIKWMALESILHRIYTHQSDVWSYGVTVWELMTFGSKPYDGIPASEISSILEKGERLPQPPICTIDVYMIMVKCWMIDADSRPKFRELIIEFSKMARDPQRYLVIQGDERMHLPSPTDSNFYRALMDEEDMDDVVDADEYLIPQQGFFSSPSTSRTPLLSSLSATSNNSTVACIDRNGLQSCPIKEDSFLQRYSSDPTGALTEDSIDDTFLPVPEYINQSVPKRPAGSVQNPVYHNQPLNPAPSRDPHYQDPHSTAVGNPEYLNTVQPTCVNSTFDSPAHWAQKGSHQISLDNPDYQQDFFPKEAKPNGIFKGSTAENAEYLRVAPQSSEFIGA
T2 sequence (P35968 20-1356): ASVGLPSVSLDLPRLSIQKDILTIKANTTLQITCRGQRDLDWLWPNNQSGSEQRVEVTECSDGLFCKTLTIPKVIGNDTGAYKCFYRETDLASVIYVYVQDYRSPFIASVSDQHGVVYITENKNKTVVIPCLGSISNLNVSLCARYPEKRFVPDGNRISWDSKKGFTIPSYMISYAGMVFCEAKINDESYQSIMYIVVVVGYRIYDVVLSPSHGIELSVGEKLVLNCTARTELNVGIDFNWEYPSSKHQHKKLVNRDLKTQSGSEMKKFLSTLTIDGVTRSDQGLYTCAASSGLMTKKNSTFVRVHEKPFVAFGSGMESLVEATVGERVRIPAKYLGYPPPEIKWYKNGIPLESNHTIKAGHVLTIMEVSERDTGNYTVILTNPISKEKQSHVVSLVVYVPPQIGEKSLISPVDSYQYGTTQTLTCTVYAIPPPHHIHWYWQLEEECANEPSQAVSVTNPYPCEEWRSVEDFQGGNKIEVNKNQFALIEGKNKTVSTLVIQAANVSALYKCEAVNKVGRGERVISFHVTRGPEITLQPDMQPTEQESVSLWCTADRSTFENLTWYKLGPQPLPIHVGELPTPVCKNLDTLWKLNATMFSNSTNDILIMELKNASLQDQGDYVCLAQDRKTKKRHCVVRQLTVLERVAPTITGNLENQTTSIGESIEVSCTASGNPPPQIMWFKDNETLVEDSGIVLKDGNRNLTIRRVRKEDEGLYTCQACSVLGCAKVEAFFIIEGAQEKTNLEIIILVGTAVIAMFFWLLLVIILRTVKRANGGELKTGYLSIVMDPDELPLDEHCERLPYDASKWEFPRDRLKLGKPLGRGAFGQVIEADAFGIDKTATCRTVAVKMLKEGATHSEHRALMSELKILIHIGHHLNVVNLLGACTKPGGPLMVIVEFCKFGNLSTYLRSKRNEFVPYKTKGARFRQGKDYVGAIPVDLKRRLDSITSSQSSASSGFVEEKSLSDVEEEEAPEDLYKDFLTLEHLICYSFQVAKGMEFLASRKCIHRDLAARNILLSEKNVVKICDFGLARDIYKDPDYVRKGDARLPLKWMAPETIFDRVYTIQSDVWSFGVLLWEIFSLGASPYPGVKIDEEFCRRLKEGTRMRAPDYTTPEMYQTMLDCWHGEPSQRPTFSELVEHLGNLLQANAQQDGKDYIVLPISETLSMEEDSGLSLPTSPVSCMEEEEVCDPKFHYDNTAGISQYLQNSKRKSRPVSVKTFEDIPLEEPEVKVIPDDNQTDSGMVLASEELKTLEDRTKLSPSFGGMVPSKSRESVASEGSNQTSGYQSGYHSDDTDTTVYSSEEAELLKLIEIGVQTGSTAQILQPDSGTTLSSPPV

Structure (SMILES) | EGFR % Inhibition (EGFR) [%] | EGFR RQ (relative quantification) (EGFR) | VEGFR-2 % Inhibition (VEGFR-2) [%] | VEGFR-2 RQ (relative quantification) (VEGFR-2) | Apoptosis (%) Early [1] [%] | Apoptosis (%) Late [1] [%] | Apoptosis (%) Total [1] [%] | Necrosis [1] [%] | IC50 [2] [µM]
CCS(=O)(=O)N1C/C(=C\c2ccc(Cl)cc2)C(=O)C2(C1)C(c1ccc(Cl)cc1)CN(C)C21C(=O)Nc2ccc(Cl)cc21 (stereo not drawn) [Compound 6l, (E)-5-Chloro-5″-(4-chlorobenzylidene)-4′-(4-chlorophenyl)-1″-(ethylsulfonyl)-1′-methyldispiro[indoline-3,2′-pyrrolidine-3′,3″-piperidine]-2,4″-dione] | 65.7 | 1.18 | 60.2 | 1.299 | 14.39 | 21.01 | 38.41 | 3.01 | > 50
CN1CC(c2ccc(Br)cc2)C2(CN(S(C)(=O)=O)C/C(=C\c3ccc(Br)cc3)C2=O)C12C(=O)Nc1ccccc12 (stereo not drawn) [Compound 6m, (E)-5″-(4-Bromobenzylidene)-4′-(4-bromophenyl)-1′-methyl-1″-(methylsulfonyl)dispiro[indoline-3,2′-pyrrolidine-3′,3″-piperidine]-2,4″-dione] | 65.6 | 1.1845 | 61.3 | 1.264 | 24.88 | 13.71 | 42.55 | 3.96 | 14.9 ± 1.61
